Assay results taken from the supplement of paper PMC10949913.

How the values were obtained:
Details in all cases: 48 h
NCI-H295R [1] = test: AC50 viability; higher = less potent
Summary of the method: (§1)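 Luminescence from CellTiter-Glo, read after 48 h, measured three adrenocortical carcinoma cell lines treated in 1,536-well plates with library compounds at 11 concentrations. Values were normalised per plate to vehicle and empty-well controls. The AC50 and area under the curve come from fitted concentration-response curves in inhibitory or non-responding classes only.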

CU-ACC1 [2] = test: AC50 viability; higher = less potent
Summary of the method: as §1

NCI-H295R [3] = test: area under concentration-response curve (viability) (AUC (a.u.)); higher = less active
Summary of the method: as §1

CU-ACC1 [4] = test: as above
Summary of the method: as §1

CU-ACC2 = test: as above
Summary of the method: as §1

Row | SMILES | AC50 viability (NCI-H295R [1]) [µM] | AC50 viability (CU-ACC1 [2]) [µM] | area under concentration-response curve (NCI-H295R [3]) | area under concentration-response curve (CU-ACC1 [4]) | area under concentration-response curve (CU-ACC2)
1 | COCc1c(-c2ccc(NC(=O)Nc3cc(C(F)(F)F)ccc3F)c(F)c2)c2c(N)ncnn2c1CN1CCOCC1 | 6.61 | 8.33 | 363 | 342 | 
2 | Cc1c(CN2CCN(C(=O)[C@H](C)O)CC2)sc2c(N3CCOCC3)nc(-c3cnc(N)nc3)nc12 | 2.09 | 0.0295 | 210 | 215 | 
3 | Nc1ccc(F)cc1NC(=O)c1ccc(CNC(=O)/C=C/c2cccnc2)cc1 | 8.33 | 9.34 | 433 | 341 | 
4 | O=C(Nc1cccnn1)N1CCC(=Cc2cccc(Oc3ccc(C(F)(F)F)cn3)c2)CC1 | 20.9 | 20.9 | 445 | 361 | 
5 | CC(C)C(=O)Nc1ncc(-c2cc(C(F)F)nn2-c2c(Cl)cccc2Cl)s1 | 23.5 | 23.5 | 507 | 472 | 
6 | Clc1ccc(C(c2ccccc2Cl)C(Cl)Cl)cc1 (configuration not stated) | 20.9 | 18.6 | 432 | 426 | 
7 | CC(C)n1cnc2c(NCCCCCCNC(=O)OC(C)(C)C)nc(NCCO)nc21 | 23.5 | 16.6 | 481 | 414 | 
8 | NCCCN([C@H](CC#C)C/1=N/C2=C(C=CC(=C2)Cl)C(=O)N1NC3=CC=CC=C3)C(=O)C4=CC=CC(=C4F)Cl | 20.9 | 33.2 | 484 | 429 | 
9 | O=C(NCCCNc1nc(Nc2ccc(N3CCOCC3)cc2)ncc1C1CC1)C1CCC1 | 14.8 | 2.63 | 460 | 379 | 
10 | CCN1CCN(Cc2ccc(NC(=O)c3ccc(C)c(/C=C/c4cnc5[nH]ccc5c4OC)c3)cc2C(F)(F)F)CC1 | 7.42 | 9.34 | 471 | 461 | 
11 | O=[N+]([O-])c1ccc(O)c2ncccc12 | 11.8 | 11.8 | 483 | 482 | 
12 | COC1=CC=C2[N](CCCN(C)C)C=C(C2=C1)C/3=C(/C(=O)NC3=O)C4=C[NH]C5=C4C=CC=C5 | 26.3 | 26.3 | 547 | 514 | 
13 | CC(C)C[C@H](NC(=O)c1cc2ccccc2s1)C(=O)N1CCN(C(=O)[C@H](CO)N[S+](=O)([O-])c2ccc(Cl)cc2Cl)CC1 | 18.6 | 16.6 | 494 | 445 | 
14 | Cl.Cl.Cl.O[C@@H](COc1cccc2ncccc12)CN1CCN([C@@H]2c3ccccc3[C@@H]3[C@H](c4ccccc42)C3(F)F)CC1 | 16.6 | 23.5 | 490 | 515 | 
15 | CCC(=O)O[C@@]1([C@@H](C)C[C@H]2[C@@H]3CCC/4=C/C(=O)/C=C\[C@]4(C)[C@@]3(F)[C@@H](O)C[C@]12C)C(=O)CCl | 20.9 | 20.9 | 503 | 475 | 
16 | CCOC(CN1C(=O)[C@](CC(=O)Nc2ccc(C)cc2)(NC(=O)Nc2ccc(C)cc2)c2ccccc21)OCC | 29.5 | 37.2 | 537 | 432 | 
17 | C[C@@H]\1COC(=N1)\NC2=CC3=C(C=C2)N=CN=C3NC4=CC(=C(OCC5=NC=CS5)C=C4)Cl | 41.7 | 20.9 | 522 | 509 | 
18 | Clc1cc(Cl)cc(CNc2ncncc2-c2ccc3c(c2)OCO3)c1 | 13.2 | 14.8 | 430 | 412 | 
19 | C/C(=C\C(=O)Nc1ccccc1C(=O)O)c1ccc2ccccc2c1 | 18.6 | 7.42 | 449 | 451 | 
20 | COC(=O)C1=C(C)NC(C)=C(C(=O)OCCN2CCN(C(c3ccccc3)c3ccccc3)CC2)C1c1cccc([N+](=O)[O-])c1.Cl.Cl (configuration not stated) | 11.8 | 20.9 | 497 | 462 | 
21 | CCN1C(=O)N\2CC3=CC(=CC(=C3[C@@H](C)\C=C2C14CCN(CC4)CC5=CC(=CC(=C5)C)C)OC)OC | 18.6 | 37.2 | 514 | 426 | 
22 | ClC1=CC=C(CCCOC/2=N/NC(=O)C(=C2NCC3=CN=CC=C3)/Br)C=C1 | 10.5 | 3.72 | 457 | 358 | 
23 | Cc1c(C(=O)Nc2ccc(N3C[C@@H](C)O[C@@H](C)C3)nc2)cccc1-c1ccc(OC(F)(F)F)cc1 | 20.9 | 18.6 | 572 | 519 | 
24 | Cc1c(C(=O)NN2CCCCC2)nn(-c2ccc(Cl)cc2Cl)c1-c1ccc(Cl)cc1 | 18.6 | 20.9 | 433 | 396 | 

Row | SMILES | AC50 viability (NCI-H295R [1]) [µM] | AC50 viability (CU-ACC1 [2]) [µM] | area under concentration-response curve (NCI-H295R [3]) | area under concentration-response curve (CU-ACC1 [4]) | area under concentration-response curve (CU-ACC2)
25 | Cc1ccc(NC(=O)c2ccc(CN3CCN(C)CC3)cc2)cc1Nc1nccc(-c2cccnc2)n1 | 20.9 | 23.5 | 469 | 484 | 
26 | CN(C)CCCN1c2ccccc2CCc2ccc(Cl)cc21 | 23.5 | 18.6 | 535 | 473 | 
27 | FC(F)(F)C1=CC=C2C(SCCCCCO\C3=C\O\C(CN4CCOCC4)=C/C3=O)=CC=NC2=C1 | 18.6 | 8.33 | 324 | 295 | 
28 | CC(=O)C\1=C(/C)C2=CN=C(NC3=CC=C(C=N3)N4CCNCC4)N=C2N(C5CCCC5)C1=O | 26.3 | 16.6 | 487 | 461 | 
29 | COC1=CC2=C(C=C1OC)[C@H]3[C@@H](CO2)OC4=C(C=CC5=C4\C=C/C(C)(C)O5)C3=O | 16.6 | 0.372 | 510 | 342 | 
30 | CCNc1cc(NC2CCC(O)CC2)nc(Nc2ccc3c(ccn3Cc3ccccc3)c2)n1 (configuration not stated) | 1.18 | 0.0235 | 156 | 149 | 
31 | CN1CCN(CCCN2c3ccccc3Sc3ccc(C(F)(F)F)cc32)CC1 | 18.6 | 29.5 | 480 | 441 | 
32 | CN(C)CCCNC(=O)c1ccc(-c2cc(O)c3ncccc3c2)cc1 | 0.332 | 16.6 | 360 | 376 | 
33 | NC(=O)c1cccc(-c2cc(Nc3ccc(OC(F)(F)F)cc3)ncn2)c1 | 20.9 | 16.6 | 538 | 488 | 
34 | COc1ccc(Cl)c(Nc2ncnc3cc(OCC4CCN(C)CC4)c(OC)cc23)c1 | 26.3 | 23.5 | 581 | 513 | 
35 | C[S+](=O)([O-])c1ccc([C@@H](CC2CCCC2)C(=O)Nc2nccs2)cc1 | 16.6 | 18.6 | 393 | 379 | 
36 | Cc1[nH]c(/C=C2\C(=O)Nc3ccc([S+](=O)([O-])N(C)c4cccc(Cl)c4)cc32)c(C)c1C(=O)N1CCN(C)CC1 | 33.2 | 20.9 | 491 | 397 | 
37 | Cc1c(-c2ccc(O)cc2)n(Cc2ccc(OCCN3CCCCCC3)cc2)c2ccc(O)cc12 | 23.5 | 29.5 | 508 | 496 | 
38 | CCN1CCC(n2cc(CNc3cc(Cl)c4ncc(C#N)c(Nc5ccc(F)c(Cl)c5)c4c3)nn2)CC1 | 23.5 | 16.6 | 494 | 456 | 
39 | O=C(C(c1ccccc1)c1ccccc1)N1CCN(CC(O)COc2cccc3ncccc23)CC1 (configuration not stated) | 16.6 | 23.5 | 524 | 467 | 
40 | CN1CCN(C2CCN(C(=O)Nc3cc(Oc4ccc(NC(=O)C5(C(=O)Nc6ccc(F)cc6)CC5)c(F)c4)ccn3)CC2)CC1 | 20.9 | 29.5 | 453 | 392 | 
41 | CC(C)Oc1ccc(C(=O)N[C@H](CNC(=O)CN(C)C)Cc2ccc(-c3cn4cccc([C@H](C)O)c4n3)cc2)cc1Cl | 13.2 | 16.6 | 427 | 424 | 
42 | COc1cc(N2CCN(C)CC2)ccc1Nc1ncc2c(n1)N(C)c1ccccc1C(=O)N2 | 23.5 | 16.6 | 492 | 479 | 
43 | Cc1ccc(F)c(NC(=O)Nc2ccc(-c3cccc4[nH]nc(N)c34)cc2)c1 | 26.3 | 18.6 | 506 | 497 | 
44 | CC[C@H](C)[N]1C=C(C)C2=C1C=C(C=C2C(=O)NC\C3=C(C)\C=C(\C)NC3=O)C4=CC=C(N=C4)N5CCNCC5 | 23.5 | 18.6 | 493 | 449 | 
45 | C[C@@H](NCCCc1cccc(C(F)(F)F)c1)c1cccc2ccccc12 | 13.2 | 10.5 | 501 | 467 | 
46 | CCC(CC)C(c1ccc(Nc2nc3ccccc3s2)cc1)n1cncn1 (configuration not stated) | 20.9 | 29.5 | 474 | 451 | 
47 | COc1cc(C(=O)NC2CCN(C)CC2)ccc1Nc1ncc2c(n1)N(C1CCCC1)CCC(=O)N2C(C)C | 23.5 | 26.3 | 538 | 504 | 
48 | CC(C)c1noc(N2CCC(COc3ccc(-c4ccc([S+](C)(=O)[O-])cc4)nc3)CC2)n1 |  | 8.33 | 496 | 419 | 583
